Source: patent US20090197279A1, “MICROTUBULE SYNTHESIS AS A BIOMARKER” (KINEMED, INC., priority 2005, published 2009)

Columns and labels:
[1] = test system: total hippocampal proteins; assay: Fractional synthesis of total hippocampal proteins; type: in vivo, mouse; details: coadministration of 0.66 pmol Rp-cAMP with glutamate
Experimental: FIG. 7 depicts the effects of ICV glutamate on the relative amounts of MT subpopulations and on total protein synthesis in murine hippocampus. (A, B) Tubulin abundances are measured by Western blot analysis for α-tubulin at 8 hour (A) and 24 hours (B). Subpopulations were total extract (total), free tubulin dimers, tau-associated MTs, tau-nonassociated (MAP2/STOP) MTs and cold stable (CS) MTs. Mock and glutamate infused ICVC mice are shown (cf. FIGS. 6A and B). […] (C) Fractional synthesis of total hippocampal proteins. Glutamate increased protein synthesis versus mock-treated animals (*p<0.01); this effect was blocked by coadministration with 0.66 pmol of Rp-cAMP (**p<0.02).
This hypothesis had not previously been tested in the living brain, however. To test this hypothesis, we used the methods of the invention disclosed herein. Mice were infused with 6 μl water containing 0.48 nmol glutamate (80 μM in the infusate), or glutamate plus 0.66 pmol Rp-cAMP (110 nM in the infusate). Label incorporation into hippocampal tubulin dimers and into microtubule polymers was then quantified after administration of ^2H2O for 8 hours or 24 hours (FIGS. 7A and 7B). […] These findings further strengthen the previously reported correlation between hippocampus glutamate NMDA receptor-dependent learning (long-term potentiation) and protein synthesis (Kandel, E. R. The molecular biology of memory storage: a dialogue between genes and synapses. Science 294, 1030-1038 (2001)). By the same criterion, the glutamate-induced program of changes in hippocampal microtubule dynamics shown in FIGS. 6 and 7 also alters hippocampal total protein synthesis in vivo (data not show), further supporting the capacity of the invention disclosed herein to generate a biochemical record of basic neuroanatomic connectivity in the brain and thereby to reveal the dynamics of synaptogenesis in vivo.

[2] = test system: hippocampal tubulin dimers and tau-associated, tau-nonassociated (MAP2/STOP) and cold-stable microtubules; assay: 2H label incorporation into hippocampal tubulin dimers and microtubule fractions after ICVC infusion (2H2O labeling, GC/MS); type: in vivo, mouse
Experimental: In (A) and (B), mice received ICVC infusions of 6 μl water alone or containing 0.48 nmol glutamate (80 μM in the infusate), or glutamate plus 0.66 pmol Rp-cAMP (110 nM in the infusate). Animals were then labeled with ^2H2O for 8 hours (A) or 24 hours (B). At sacrifice, the hippocampal post-nuclear supernatant was fractionated as show in FIG. 5A; a separate aliquot was used for isolation of cold stable (CS) MTs (FIG. 5D). Glutamate injection stimulated label incorporation into new MAP2/STOP-MTs at 8 and 24 hours, and CS MTs at 24 hours; both were blocked by Rp-cAMP. In order to correct the effects of pharmacologic intervention on MT dynamics for the confounding changes in tubulin synthesis, the numbers above each bar express ^2H label incorporation into MT as a percentage of ^2H labeling in the corresponding tubulin dimer fractions. (C) Dose dependence of glutamate effects. ^2H2O labeling was initiated at time zero, 6 μl ICVC infusions with the indicated concentrations of glutamate were performed at 24 hours, and labeling was continued until sacrifice at 48 hours (24 hours post glutamate infusion). Hippocampal MTs were fractionated into tau-associated, MAP2-associated, and non-associated (STOP-associated) MT fractions, as in FIG. 5A. In all experiments, bars represent % new tubulin (mean±SD, n=3).
Tubulin was purified using minor modifications of protocols described previously (Fanara, P., Oback, B., Ashman, K., Podtelejnikov, A., Brandt, R. Identification of MINUS, a small polypeptide that functions as a microtubule nucleation suppressor. EMBO J. 18, 565-577 (1999); Fanara, P. et al. In vivo measurement of microtubule dynamics using stable isotope labeling with heavy water. Effect of taxanes. J. Biol. Chem. 279, 49940-49947 (2004). Briefly, cultured neurons were gently scraped off culture plates, washed in phosphate-buffered saline (PBS), and homogenized in microtubule-stabilizing buffer. For purification ex vivo, mice were anesthetized with isoflurane and euthanized by cervical dislocation. Brains were rapidly removed and washed in microtubule-stabilizing buffer (MSB); hippocampi were dissected and gently homogenized in MSB. To separate cytosolic tubulin dimers from microtubule polymers, post-nuclear supernatants were centrifuged at 190,000×g at 20° C. for 35 min. The supernatant or non-microtubule fraction (containing the soluble dimeric tubulin) was separated from the pellet or microtubule fraction (containing polymeric tubulin), quick-frozen and stored at −20° C. Microtubule pellets were further fractionated by sequential immunoaffinity chromatography steps (FIG. 3). In order to isolate tau-associated microtubules, TAU5 antibody was covalently coupled to epoxy-activated Sepharose beads (Amersham Pharmacia Biotech) at a concentration of 0.25 mg/ml. Approximately 0.2 mg of the microtubule pellet was incubated with TAU-5 beads in 0.5 ml MSB for 1 hour at room temperature. Unbound material was removed, the beads were washed three times in 0.5 ml of MSB, and bound material was eluted in 0.5 ml MSB containing 1M NaCl. In some experiments, MAP2-associated microtubules were captured from the TAU5-unbound material by immunoaffinity chromatography on epoxy-activated Sepharose beads coupled to MAP2 antibody (0.5 mg antibody per ml beads) using the same protocol. The relative abundance of tubulin in each preparation (Tubulin dimers and TAU5-bound, MAP2-bound, and unbound microtubule fractions) was quantified by Western blot, and tubulin from these fractions was further purified by ion exchange and size exclusion chromatography, as previously described (Fanara, P. et al. In vivo measurement of microtubule dynamics using stable isotope labeling with heavy water. Effect of taxanes. J. Biol. Chem. 279, 49940-49947 (2004)). […]

[3] = Toxicity of maintained body water 2H2O enrichment; type: in vivo; details: 1-10% of total body water labeled, maintained for weeks or months; >100 human subjects
Text: Relatively high body water enrichments of ^2H2O (e.g., 1-10% of the total body water is labeled) may be achieved relatively inexpensively using the techniques of the invention. […] This finding in a large number of human subjects (>100 people) is contrary to previous concerns about vestibular toxicities at high doses of ^2H2O. One of the Applicants has discovered that as long as rapid changes in body water enrichment are prevented (e.g., by initial administration in small, divided doses), high body water enrichments of ^2H2O can be maintained with no toxicities. For example, the low expense of commercially available ^2H2O allows long-term maintenance of enrichments in the 1-5% range at relatively low expense (e.g., calculations reveal a lower cost for 2 months labeling at 2% ^2H2O enrichment, and thus 7-8% enrichment in the alanine precursor pool, than for 12 hours labeling of ^2H-leucine at 10% free leucine enrichment, and thus 7-8% enrichment in leucine precursor pool for that period).

| SMILES | glutamate-induced increase in total hippocampal protein synthesis [1] | glutamate-stimulated label incorporation into new MAP2/STOP-MTs ([2]; 0.48 nmol glutamate plus 0.66 pmol Rp-cAMP ICVC, 8 and 24 hours) | glutamate-stimulated label incorporation into CS MTs ([2]; 0.48 nmol glutamate plus 0.66 pmol Rp-cAMP ICVC, 24 hours) | fractional synthesis of tubulin dimers and microtubules ([2]; glutamate plus 0.66 pmol Rp-cAMP, 24 hours) | toxicity [3] |
| --- | --- | --- | --- | --- | --- |
| Nc1ncnc2c1ncn2[C@@H]1O[C@@H]2COP(O)(=S)O[C@H]2[C@H]1O (single isomer, unassigned) [Rp-cAMP, adenosine-3′,5′-monophosphorothioate, Rp-isomer] | blocked | blocked | blocked | significantly blocked | – |
| [2H]O[2H] [^2H2O] | – | – | – | – | without any evidence of toxicity |
